Source: patent US10787640B2, “Producing mesodermal cell types and methods of using the same” (The Board of Trustees of the Leland Stanford Junior …, priority 2015, dated 2020)

What was measured:
Assay type in all cases: cell-based, human
[1] = tested on: hESC-derived lateral mesoderm; assay: Lateral mesoderm patterning, qPCR
Method: (§1) Subsequently, day 1 anterior primitive streak was briefly washed (DMEM/F12) and differentiated towards day 2 paraxial mesoderm for 24 hours (1 μM A-83-01+3 μM CHIR99021+250 nM LDN-193189+20 ng/mL FGF2). Separately, day 1 mid primitive streak was differentiated towards day 2 lateral mesoderm for 24 hours (1 μM A-83-01+30 ng/mL BMP4+1 μM C59; with 2 μM SB-505124 sometimes used instead of A-83-01).
C) To reveal the possible identity of non-cardiac mesoderm lineages that were contaminating cardiac mesoderm-containing cultures, NKX2.5-GFP hESCs were differentiated towards mid primitive streak (day 1) and were differentiated towards a heterogeneous population containing cardiac mesoderm (day 3) by treatment with SB-505124+BMP4+C59 (without FGF2) on days 2-3 of differentiation. FACS was performed on day 3 to purify either NKX2.5-GFP^+ or NKX2.5-GFP^− cells (top subpanels) which were sorted for qPCR (bottom subpanels). Gene expression was normalized to expression of a gene in the NKX2.5-GFP^+ fraction (dotted line). D) Timecourse of gene expression in hESCs differentiating towards mid primitive streak and lateral mesoderm, with treatment by SB-505124+BMP4+C59 on days 2-3 of differentiation. […] G) To assess whether a stabilized vitamin C analog (ascorbic acid-2-phosphate) (AA2P) enhanced cardiac mesoderm differentiation into cardiomyocytes, day 4 hESC-derived cardiac mesoderm was exposed to BMP4 (30 ng/mL)+XAV939 (1 μM) for 48 hours in the presence or absence of 200 μg/mL AA2P and qPCR was conducted of day 6 populations; qPCR data were normalized such that expression values in the highest-expressing sample was normalized=1.0. […] J) In the mouse embryo, endocardium (progenitors to heart-affiliated endothelium) are marked by transient coexpression of pan-heart marker Nkx2.5 together with endothelial markers (Ferdous et al., 2009; Stanley et al., 2002).

[2] = tested on: paraxial mesoderm; assay: Paraxial mesoderm induction, marker expression; conditions: during induction of paraxial mesoderm
Method: All differentiation was conducted in serum-free CDM2 basal medium in monolayer feeder-free conditions. hPSCs were sparsely passaged ˜1:15-1:20 as fine clumps (using Accutase) onto Geltrex (Gibco)-coated cell culture wells and cultured overnight in mTeSR1+1 μM thiazovivin. The following morning, hPSCs were differentiated towards anterior PS (30 ng/mL Activin+4 μM CHIR+20 ng/mL FGF2+100 nM PIK90; for subsequent paraxial differentiation) or mid PS (30 ng/mL Activin+40 ng/mL BMP4+6 μM CHIR+20 ng/mL FGF2+[…] differentiation) for 24 hrs. D1 anterior PS→D2 paraxial mesoderm (1 μM A8301+3 μM CHIR+250 nM LDN193189+20 ng/mL FGF2) for 24 hrs. D1 mid PS→D2 lateral mesoderm (1 μM A8301+30 ng/mL BMP4+1 μM C59) for 24 hrs.
as §1

[3] = tested on: day 3 hemogenic precursors; assay: Hemogenic precursors into day 5 hematopoietic intermediates; conditions: withdrawal of the factor from BMP, VEGF, XAV939, TTNPB
Method: (§2) SOX17^mCherry/+ H9 hESCs (referred to as SOX17-mCherry hESCs throughout this study) were routinely propagated in mTeSR1 (StemCell Technologies)+1% penicillin/streptomycin. They were passaged ˜1:12-1:25 as fine clumps using Accutase (Gibco) onto plates precoated with a Geltrex substratum (Gibco) in mTeSR1 medium supplemented with thiazovivin ([…]; a ROCK inhibitor). After overnight plating, hESCs were washed (DMEM/F12) and differentiated towards posterior PS using BMP4 (15-40 ng/mL, R&D Systems), CHIR99021 ([…]), FGF2 (20 ng/mL, Invitrogen) and PIK90 (100 nM, Calbiochem) for 24 hours, with the optional inclusion of Activin (30 ng/mL, R&D Systems) to induce mid PS. Day 1 mid or posterior PS was subsequently washed (DMEM/F12) and further differentiated using BMP4 (40 ng/mL), GDC-0941 (0.25-2.5 μM, Cellagen Technology), Forskolin (10 μM, Tocris), SB-505124 ([…]), VEGF (100 ng/mL, R&D Systems), XAV939 (1 μM, Tocris) and ascorbic acid-2-phosphate (200 μg/mL, Sigma) for 24 hours. Day 2 cultures were further directed into the definitive hematopoietic lineage/hemogenic precursors by Activin A (15 ng/mL), GDC-0941 (0.25-2.5 μM), VEGF (100 ng/mL), XAV939 (1 μM) and ascorbic acid-2-phosphate (200 μg/mL) for 24 hours. Day 3 definitive hematopoietic progenitors were subsequently differentiated into early Runx1^lowGfi1^low hemogenic intermediates through day 4-5 treatment with BMP4 (50 ng/mL), TTNPB (500 nM), VEGF (100 ng/mL) and XAV939 (1 μM) for 48 hours, supplemented with SB-505124 (2 μM) on day 5. Day 5 populations were then dissociated into single cells, counted and reaggregated in individual wells of a low-adhesion V-bottom or U-bottom 96-well plate (e.g., Thermo Fisher, catalog no. 249952) with ˜15,000-20,000 cells seeded per well. Aggregates were cultured for 48 additional hours until day 7 in BMP4 (50 ng/mL), TTNPB (500 nM), VEGF (100 ng/mL), XAV939 (1 μM), SB-505124 (2 μM), SCF (25-50 ng/mL, R&D Systems), IL6 (10 ng/mL, R&D Systems) and IL6RA (250-1000 ng/mL, R&D Systems). All differentiation was conducted in serum-free CDM2 fully-defined basal media.

[4] = tested on: SOX17-mCherry hESCs; assay: Hematopoietic mesoderm and SOX17+CD34+ hemogenic precursor specification
Method: as §2

In the case of `Cc1cnc(-c2cnc(NCCNc3ccc(C#N)cn3)nc2-c2ccc(Cl)cc2Cl)[nH]1` [CHIR99021, 6-[[2-[[4-(2,4-Dichlorophenyl)-5-(5-methyl-1H-imidazol-2-yl)-2-pyrimidinyl]amino]ethyl]amino]-3-pyridinecarbonitrile], the “lateral mesoderm fate (qPCR)” value ([1]; day 2 lateral mesoderm, SB-505124+BMP4 with CHIR99021 or C59, 24 hours) is reported as “specified a posterior lateral mesoderm/forelimb bud fate (PRRX1)”, the “pan-lateral mesoderm marker FOXF1 expression” value ([1]; last 12 hrs C59 or 3 μM CHIR in addition to BS) is reported as “not markedly changed” and the marker expression ([2]; at 4 μM) is reported as “undesired decrease in marker expression”. For the same molecule, the critical concentration [2] was “less than 4 μM”.

B1: BMP4: BMP family ligand, BMP agonist (protein, UniProt P12644 293-408, looked up)
Bone morphogenetic protein 4: SPKHHSQRARKKNKNCRRHSLYVDFSDVGWNDWIVAPPGYQAFYCHGDCPFPLADHLNSTNHAIVQTLVNSVNSSIPKACCVPTELSAISMLYLDEYDKVVLKNYQEMVVEGCGCR
For B1, the “RUNX1 expression by day 5” value [3] was “crippled RUNX1 expression”.

B2: Activin: TGFβ agonist (protein, UniProt P08476 311-426, looked up)
Inhibin beta A chain: GLECDGKVNICCKKQFFVSFKDIGWNDWIIAPSGYHANYCEGECPSHIAGTSGSSLSFHSTVINHYRMRGHSPFANLKSCCVPTKLRPMSMLYYDDGQNIIKKDIQNMIVEECGCS
modifications: Inhibin beta A chain
notes: TGFβ agonist
With B2 the “downstream ability to acquire hematopoietic fate” value ([4]; Activin 30 ng/mL during PS induction) was “significantly enhanced the downstream ability of cells to acquire hematopoietic fate” and the “SOX17+ cells formed by day 3” value ([4]; treatment on day 2-3, 24 hours) was “doubled the generation of SOX17^+ cells”.
